Test: xn = mol fraction of the nth substance listed
Details: 298.15 K, Liquid

CCCCCCCl [1-chlorohexane] + CN1CCCC1=O
mass density [kg/m3]
Details	x2 = 0.1003	x2 = 0.1988	x2 = 0.305	x2 = 0.4005	x2 = 0.5007	x2 = 0.5974	x2 = 0.7016	x2 = 0.8002	x2 = 0.8995
100 kPa	884.9	897	911	924.2	938.9	954.1	971.5	988.7	1007.4
500 kPa	885.2	897.3	911.2	924.5	939.2	954.4	971.7	988.9	1007.6
1000 kPa	885.5	897.6	911.6	924.9	939.5	954.6	972.1	989.2	1007.9
1500 kPa	886	898.1	912	925.3	939.9	955	972.4	989.5	1008.2
1900 kPa	–	–	912.3	–	–	–	–	–	–
2000 kPa	886.4	898.4	–	925.6	940.2	955.3	972.7	989.8	1008.4
2500 kPa	886.8	898.9	912.8	926	940.6	955.7	973	990.1	1008.7
3000 kPa	887.2	899.2	913.2	926.4	941	956	973.4	990.4	1009
3500 kPa	887.7	899.6	913.6	926.8	941.3	956.2	973.7	990.6	1009.3
4000 kPa	888	900	–	927.1	941.6	956.6	974	991	1009.6
4100 kPa	–	–	914	–	–	–	–	–	–
4500 kPa	888.4	900.4	914.3	–	942	956.9	974.3	991.2	1009.8
4600 kPa	–	–	–	927.5	–	–	–	–	–
4900 kPa	888.7	–	–	–	–	–	–	–	–
5000 kPa	–	900.8	914.6	927.8	942.3	957.3	974.6	991.5	1010.1
5500 kPa	889.2	901.2	915	928.2	942.7	957.6	974.8	991.8	1010.4
5900 kPa	889.6	–	–	–	–	–	–	–	–
6000 kPa	–	901.6	915.4	928.6	943	958	975.2	992.2	1010.7
6500 kPa	890.1	902	915.8	928.9	943.3	958.3	975.5	992.4	1011
7000 kPa	890.4	902.4	916.2	929.2	943.7	958.6	975.8	992.7	1011.2
7400 kPa	–	902.7	–	–	–	–	–	–	–
7500 kPa	890.8	–	916.6	929.6	944	958.9	976.1	993.1	1011.5
8000 kPa	891.2	903.1	917	929.9	944.3	959.2	976.4	993.3	1011.8
8400 kPa	891.6	–	917.2	–	–	–	–	–	–
8500 kPa	–	–	–	930.3	944.7	959.5	976.7	993.6	1012
8600 kPa	–	903.6	–	–	–	–	–	–	–
8900 kPa	892	–	–	–	945	959.8	–	–	–
9000 kPa	–	903.8	917.7	930.7	–	–	977	993.9	1012.3
9400 kPa	–	–	–	930.9	–	–	–	–	–
9500 kPa	892.4	904.2	918.1	–	945.3	960.1	977.3	994.2	1012.6
9900 kPa	–	–	–	–	–	–	977.7	–	–
10000 kPa	892.9	904.7	918.6	931.4	945.7	960.5	–	994.5	1012.9
10500 kPa	893.2	905.1	918.8	931.7	946	960.8	978	994.8	1013.2
11000 kPa	893.5	905.4	919.2	932.1	946.4	961.1	978.3	995.1	1013.5
11400 kPa	893.9	–	–	–	–	961.4	–	–	–
11500 kPa	–	905.8	919.6	932.4	946.8	–	978.6	995.4	1013.8
11900 kPa	–	–	–	–	947	–	978.9	–	–
12000 kPa	894.3	906.2	919.9	932.8	–	961.8	–	995.7	1014
12400 kPa	–	906.5	–	–	–	–	–	995.9	1014.2
12500 kPa	894.7	–	920.2	933.1	947.3	962.2	–	–	–
12600 kPa	–	–	–	–	–	–	979.2	–	–
12900 kPa	–	–	–	–	–	–	979.4	–	–
13000 kPa	895.1	907.1	920.6	933.4	947.7	962.4	–	996.3	1014.5
13400 kPa	–	907.3	–	–	948	–	979.7	996.5	–
13500 kPa	895.5	–	921	933.8	–	962.6	–	–	1014.8
13900 kPa	–	–	–	–	948.3	–	–	–	–
14000 kPa	895.9	907.7	921.3	934.1	–	963.1	980.1	996.8	1015.1
14400 kPa	–	–	921.6	934.4	–	–	–	–	–
14500 kPa	896.3	908	–	–	948.6	963.4	980.3	997.1	1015.4
15000 kPa	896.6	908.4	922	934.8	949	963.7	980.7	997.4	1015.6
15400 kPa	896.9	–	–	–	–	–	–	–	–
15500 kPa	–	908.7	922.3	935.1	949.3	964	981	997.6	1015.8
15900 kPa	–	–	–	–	–	964.2	–	–	–
16000 kPa	897.4	909	922.7	935.4	949.6	–	981.3	–	1016.1
16100 kPa	–	–	–	–	–	–	–	998	–
16500 kPa	897.7	909.4	923	935.7	949.9	964.6	981.5	998.2	1016.4
16900 kPa	–	909.7	–	–	–	964.8	–	–	1016.6
17000 kPa	898	–	923.4	936	950.2	–	981.8	998.4	–
17400 kPa	–	–	–	–	950.5	–	982	–	–
17500 kPa	898.4	910.1	923.6	–	–	965.1	–	998.8	1016.9
17600 kPa	–	–	–	936.5	–	–	–	–	–
18000 kPa	898.8	910.5	924	936.7	950.8	965.4	982.3	999	1017.1
18400 kPa	–	–	–	937	951.1	–	–	–	–
18500 kPa	899.1	910.9	924.3	–	–	965.7	982.7	999.2	–
18700 kPa	–	–	–	–	–	–	–	–	1017.5
19000 kPa	899.5	911.3	924.7	937.4	951.5	966	983	999.6	1017.8
19500 kPa	899.8	911.6	925	937.8	951.8	966.3	983.3	999.8	1017.9
20000 kPa	900.3	912	925.4	938.2	952.2	966.7	983.8	1000.2	1018.3

Source: the NIST ThermoML archive (doi:10.1021/je7003758)
